Test results: patent publication US6506772B1, “Substituted [1,2,4]triazolo[1,5a]pyridine derivatives with activity as adenosine receptor ligands” (Hoffmann-La Roche Inc., priority 2000, dated 2003)
Like-named read-outs stand apart in the source and are kept apart here.

Legend:
[1] = target: T1, human adenosine A2A receptor (Homo sapiens, UniProt P29274); experiment: Human adenosine A2A receptor [3H]-SCH-58261 binding assay
T1 construct: expressed in transfected cells; host or cells: CHO cells, Semliki Forest virus expression system; membrane preparation
T1 sequence (P29274 whole entry): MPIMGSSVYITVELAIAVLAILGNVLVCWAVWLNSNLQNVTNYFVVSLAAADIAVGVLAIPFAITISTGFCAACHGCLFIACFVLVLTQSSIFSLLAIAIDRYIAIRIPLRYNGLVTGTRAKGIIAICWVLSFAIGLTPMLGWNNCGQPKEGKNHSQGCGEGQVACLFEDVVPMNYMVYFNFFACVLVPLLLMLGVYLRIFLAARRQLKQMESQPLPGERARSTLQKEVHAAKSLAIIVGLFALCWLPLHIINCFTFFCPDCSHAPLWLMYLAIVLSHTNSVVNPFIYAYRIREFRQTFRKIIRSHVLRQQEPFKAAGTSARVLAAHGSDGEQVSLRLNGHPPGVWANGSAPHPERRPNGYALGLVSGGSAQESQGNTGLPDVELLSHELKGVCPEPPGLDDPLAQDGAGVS

HA1 adenosine receptor = target: T2, HA1 adenosine receptor (Homo sapiens, UniProt P30542); experiment: Human adenosine A1 receptor affinity (Ki hA1); assay type: binding
T2 sequence (P30542 1-326): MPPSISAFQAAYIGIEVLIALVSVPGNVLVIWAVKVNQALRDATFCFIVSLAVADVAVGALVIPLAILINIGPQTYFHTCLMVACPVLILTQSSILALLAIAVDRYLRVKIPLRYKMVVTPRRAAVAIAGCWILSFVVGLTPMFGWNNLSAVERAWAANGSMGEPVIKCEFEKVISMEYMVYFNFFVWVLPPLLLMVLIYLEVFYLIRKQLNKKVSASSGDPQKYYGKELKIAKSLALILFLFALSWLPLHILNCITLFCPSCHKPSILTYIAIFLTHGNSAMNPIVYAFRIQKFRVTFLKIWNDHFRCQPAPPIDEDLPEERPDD

[2] = affinity to human adenosine A2A receptor, read-out: Ki HA2A
[3] = calculated ratio of the affinity to the HA1 receptor to the HA2a receptor
[4] = affinity to human adenosine A1 receptor
[5] = recombinant human A2A in CHO cell membranes, [3H]-SCH-58261, Cheng-Prussoff, read-out: Ki hA2A

| SMILES | Ki [1, 2] [nM] | selectivity (A1/A2a) [1, 3] | Ki (HA1 adenosine receptor; [4]) [nM] | selectivity (A1/A2a) ([1]; ratio KiHA1 divided by KiHA2A) | Ki [1, 5] [nM] | Ki (HA1 adenosine receptor) [nM] |
| --- | --- | --- | --- | --- | --- | --- |
| Nc1cc(C(=O)NCc2ccccc2Br)cc2nc(-c3cccnc3)nn12 [Example 79, 5-Amino-2-pyridin-3-yl-[1,2,4]triazolo[1,5-a]pyridine-7-carboxylic acid 2-bromo-benzylamide] | 152 | 9.2 | 1400 |  |  |  |
| Nc1cc(C(=O)N2CCCCC2)cc2nc(-c3ccoc3)nn12 [Example 155, (5-Amino-2-furan-3-yl-[1,2,4]triazolo[1,5-a]pyridin-7-yl)-piperidin-1-yl-methanone] | 301 | 19.4 | 5850 |  |  |  |
| COCCN(C)C(=O)c1cc(N)n2nc(-c3ccc(Br)o3)nc2c1 [Example 395, 5-Amino-2-(5-bromo-furan-2-yl)-[1,2,4]triazolo[1,5-a]pyridine-7-carboxylic acid (2-methoxy-ethyl)-methyl-amide] |  |  |  | 44 | 6.7 | 295 |
| COc1cc(CNC(=O)c2cc(N)n3nc(-c4ccco4)nc3c2)cc(OC)c1OC [Example 111, 5-Amino-2-furan-2-yl-[1,2,4]triazolo[1,5-a]pyridine-7-carboxylic acid 3,4,5-trimethoxy-benzylamide] | 45.2 | 27.1 | 1220 |  |  |  |
| Nc1cc(C(=O)NCc2ccccc2Cl)cc2nc(-c3ccccc3)nn12 [Example 218, 5-Amino-2-phenyl-[1,2,4]triazolo[1,5-a]pyridine-7-carboxylic acid 2-chloro-benzylamide] | 47.2 | 2.5 | 116 |  |  |  |
| C[C@@H]1CCC[C@H](C)N1C(=O)c1cc(N)n2nc(-c3nccs3)nc2c1 [Example 358, (5-Amino-2-thiazol-2-yl-[1,2,4]triazolo[1,5-a]pyridin-7-yl)-(cis-2,6-dimethyl-piperidin-1-yl)-methanone] | 74.7 | 23.0 | 1720 |  |  |  |
| COc1ccccc1CNC(=O)c1cc(N)n2nc(-c3ccc(C)s3)nc2c1 [Example 201, 5-Amino-2-(5-methyl-thiophen-2-yl)-[1,2,4]triazolo[1,5-a]pyridine-7-carboxylic acid 2-methoxy-benzylamide] | 31.3 | 1.1 | 33 |  |  |  |
| CC1CCCN(C(=O)c2cc(N)n3nc(-c4nccs4)nc3c2)C1 (stereo not drawn) [Example 316, (5-Amino-2-thiazol-2-yl-[1,2,4]triazolo[1,5-a]pyridin-7-yl)-(3,methyl-piperidin-1-yl)-methanone] | 72.3 | 30.3 | 2190 |  |  |  |
| CCCCN(Cc1ccccc1)C(=O)c1cc(N)n2nc(-c3cccnc3)nc2c1 [Example 89, 5-Amino-2-pyridin-3-yl-[1,2,4]triazolo[1,5-a]pyridine-7-carboxylic acid benzyl-butyl-amide] | 174 | 5.2 | 900 |  |  |  |
| Nc1cc(C(=O)N2CCCCC2)cc2nc(-c3ccccn3)nn12 [Example 34, (5-Amino-2-pyridin-2-yl-[1,2,4]triazolo[1,5-a]pyridin-7-yl)-piperidin-1-yl-methanone] | 154 | 38.8 | 5980 |  |  |  |
| CCCCCCNC(=O)c1cc(N)n2nc(-c3ccccn3)nc2c1 [Example 47, 5-Amino-2-pyridin-2-yl-[1,2,4]triazolo[1,5-a]pyridine-7-carboxylic acid hexylamide] | 37.5 | 8.4 | 316 |  |  |  |
| Nc1cc(C(=O)NCc2ccc(F)cc2)cc2nc(-c3ccccn3)nn12 [Example 43, 5-Amino-2-pyridin-2-yl-[1,2,4]triazolo[1,5-a]pyridine-7-carboxylic acid 4-fluoro-benzylamide] | 87.7 | 2.3 | 203 |  |  |  |
| CCC1CCC(C)N(C(=O)c2cc(N)n3nc(-c4ccc(Br)o4)nc3c2)C1 (stereo not drawn) [Example 393, [5-Amino-2-(5-bromo-furan-2-yl)-[1,2,4]triazolo[1,5-a]pyridin-7-yl]-(5-ethyl-2-methyl-piperidin-1-yl)-methanone] |  |  |  | 32.9 | 2.9 | 95.3 |
| CCNC(=O)c1cc(N)n2nc(-c3ccc(Br)o3)nc2c1 [Example 335, 5-Amino-2-(5-bromo-furan-2-yl)-[1,2,4]triazolo[1,5-a]pyridine-7-carboxylic acid ethylamide] | 25.2 | 14.1 | 355 |  |  |  |
| C=CCN(C)C(=O)c1cc(N)n2nc(-c3ccc(Cl)o3)nc2c1 [Example 251, 5-Amino-2-(5-chloro-furan-2-yl)-[1,2,4]triazolo[1,5-a]pyridine-7-carboxylic acid allyl-methyl-amide] | 14.7 | 24.5 | 360 |  |  |  |
| Nc1cc(C(=O)NCc2ccccc2Br)cc2nc(-c3ccoc3)nn12 [Example 157, 5-Amino-2-furan-3-yl-[1,2,4]triazolo[1,5-a]pyridine-7-carboxylic acid 2-bromo-benzylamide] | 18 | 12.8 | 231 |  |  |  |
| CCN(Cc1ccncc1)C(=O)c1cc(N)n2nc(-c3nccs3)nc2c1 [Example 325, 5-Amino-2-thiazol-2-yl-[1,2,4]triazolo[1,5-a]pyridine-7-carboxylic acid ethyl-pyridin-4-ylmethyl-amide] | 37.6 | 35.2 | 1330 |  |  |  |
| Cc1ccc(-c2nc3cc(C(=O)N4CCCC4)cc(N)n3n2)s1 [Example 196, [5-Amino-2-(5-methyl-thiophen-2-yl)-[1,2,4]triazolo[1,5-a]pyridin-7-yl]-pyrrolidin-1-yl-methanone] | 52.2 | 8.3 | 432 |  |  |  |
| CCCCN(C)C(=O)c1cc(N)n2nc(-c3ccc(Br)o3)nc2c1 [Example 271, 5-Amino-2-(5-bromo-furan-2-yl)-[1,2,4]triazolo[1,5-a]pyridine-7-carboxylic acid butyl-methyl-amide] | 6.5 | 22.9 | 149 |  |  |  |
| CCCCNC(=O)c1cc(N)n2nc(-c3ccccc3)nc2c1 [Example 145, 5-Amino-2-phenyl-[1,2,4]triazolo[1,5-a]pyridine-7-carboxylic acid butylamide] | 26 | 4.1 | 106 |  |  |  |
| Nc1cc(C(=O)NCc2ccccc2)cc2nc(-c3ccccc3)nn12 [Example 216, 5-Amino-2-phenyl-[1,2,4]triazolo[1,5-a]pyridine-7-carboxylic acid benzylamide] | 64.1 | 2.3 | 149 |  |  |  |
| Nc1cc(C(=O)N2CCc3ccccc3C2)cc2nc(-c3ccc(Br)o3)nn12 [Example 347, [5-Amino-2-(5-bromo-furan-2-yl)-[1,2,4]triazolo[1,5-a]pyridin-7-yl]-(3,4-dihydro-1H-isoquinolin-2-yl)-methanone] | 13.3 | 17.7 | 236 |  |  |  |
| COc1ccc(-c2nc3cc(C(=O)NCc4ccccc4)cc(N)n3n2)s1 [Example 62, 5-Amino-2-(5-methoxy-thiophen-2-yl)-[1,2,4]triazolo[1,5-a]pyridine-7-carboxylic acid benzylamide] | 176 | 0.6 | 113 |  |  |  |
| Cc1ccsc1-c1nc2cc(C(=O)N3CCCCC3)cc(N)n2n1 [Example 189, [5-Amino-2-(3-methyl-thiophen-2-yl)-[1,2,4]triazolo[1,5-a]pyridin-7-yl]-piperidin-1-yl-methanone] | 268 | 2.9 | 763 |  |  |  |
| CN(C(=O)c1cc(N)n2nc(-c3nccs3)nc2c1)C1CCCCC1 [Example 124, 5-Amino-2-thiazol-2-yl-[1,2,4]triazolo[1,5-a]pyridine-7-carboxylic acid cyclohexyl-methyl-amide] | 99.2 | 15.2 | 1510 |  |  |  |
| CC1CCCN1C(=O)c1cc(N)n2nc(-c3ccc(Cl)o3)nc2c1 (stereo not drawn) [Example 254, [5-Amino-2-(5-chloro-furan-2-yl)-[1,2,4]triazolo[1,5-a]pyridin-7-yl]-(2-methyl-pyrrolidin-1-yl)-methanone] | 11.2 | 44.8 | 503 |  |  |  |
| C=CCN(CC=C)C(=O)c1cc(N)n2nc(-c3nccs3)nc2c1 [Example 290, 5-Amino-2-thiazol-2-yl-[1,2,4]triazolo[1,5-a]pyridine-7-carboxylic acid diallylamide] | 57.6 | 22.2 | 1280 |  |  |  |
| CCCNC(=O)c1cc(N)n2nc(-c3cccnc3)nc2c1 [Example 82, 5-Amino-2-pyridin-3-yl-[1,2,4]triazolo[1,5-a]pyridine-7-carboxylic acid propylamide] | 309 | 18.9 | 5850 |  |  |  |
| CC1C=CC(C)N1C(=O)c1cc(N)n2nc(-c3nccs3)nc2c1 (stereo not drawn) [Example 302] | 104 | 19.4 | 2020 |  |  |  |
| CCCN(C)C(=O)c1cc(N)n2nc(-c3ccccn3)nc2c1 [Example 412, 5-Amino-2-pyridin-2-yl-[1,2,4]triazolo[1,5-a]pyridine-7-carboxylic acid methyl-propyl-amide] |  |  |  | 25.4 | 119 | 3020 |
